Data reported in the supplement of paper PMC12592484.

Tests used:
Test in all cases: drug sensitivity score (DSS2, normalised partial AUC of dose-response, 72 h CellTiter-Glo viability) (DSS (dimensionless)); higher = more sensitive (stronger growth inhibition / cytotoxicity); extreme values may be limits of the assay
[1] = test system: CAF#4 (primary prostate cancer-associated fibroblasts of iCAF-like type)
Procedure, shortened: (§1)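 Viability of low-passage primary prostate cancer-associated fibroblasts, PF179T, WPMY-1, LNCaP and 22Rv1 cells was read by CellTiter-Glo 2.0 luminescence 72 h after seeding onto compounds pre-dispensed in 384-well plates at five doses over a 10,000-fold range. Readings were scaled between vehicle and positive-control wells. Sensitivity is reported as a drug sensitivity score from BREEZE, namely a partial area under the fitted logistic curve divided by the log of its upper asymptote, where higher means more sensitive.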

[2] = test system: WPMY-1
Procedure, shortened: as §1

[3] = test system: PF179T
Procedure, shortened: as §1

[4] = test system: CAF#1 (primary prostate cancer-associated fibroblasts of myCAF-like type)
Procedure, shortened: as §1

[5] = test system: CAF#2 (primary prostate cancer-associated fibroblasts of iCAF-like type)
Procedure, shortened: as §1

[6] = test system: 22Rv1
Procedure, shortened: as §1

[7] = test system: CAF#7 (primary prostate cancer-associated fibroblasts of myCAF-like type)
Procedure, shortened: as §1

[8] = test system: LNCAP
Procedure, shortened: as §1

[9] = test system: CAF#5 (primary prostate cancer-associated fibroblasts of myCAF-like type)
Procedure, shortened: as §1

[10] = test system: CAF#6 (primary prostate cancer-associated fibroblasts of iCAF-like type)
Procedure, shortened: as §1

[11] = test system: CAF#3 (primary prostate cancer-associated fibroblasts of myCAF-like type)
Procedure, shortened: as §1

SMILES | drug sensitivity score [1] | drug sensitivity score [2] | drug sensitivity score [3] | drug sensitivity score [4] | drug sensitivity score [5] | drug sensitivity score [6] | drug sensitivity score [7] | drug sensitivity score [8] | drug sensitivity score [9] | drug sensitivity score [10] | drug sensitivity score [11]
CC(C)Cn1cnc2c(N)nc3ccccc3c21 [Imiquimod] (tested concentration range 0.2-2500 nM) | 0 | 0 | 0 | 1.4 | 0 | 0 | 0 | 0 | 0 | 0 | 0.1
Cn1cc(C[C@@H](N)C(=O)O)c2ccccc21 [Indoximod] (tested concentration range 0.5-5000 nM) | 0 | 0 | 0 | 0 | 0 | 0 | 0 | 0 | 0.6 | 0 | 0
CCN1CCN(c2ccc(Nc3cc(N(C)C(=O)Nc4c(Cl)c(OC)cc(OC)c4Cl)ncn3)cc2)CC1 [Infigratinib] (tested concentration range 0.1-1000 nM) | 0 | 0 | 0 | 0 | 0 | 0 | 0 | 0 | 0 | 0 | 0
CC(C)NC[C@@H](C(=O)N1CCN(c2ncnc3c2[C@H](C)C[C@H]3O)CC1)c1ccc(Cl)cc1 [Ipatasertib] (tested concentration range 1-10000 nM) | 0.1 | 2 | 0 | 0.6 | 1.2 | 5.7 | 0 | 22.6 | 1.1 | 1.7 | 1.8
CCC(C)n1ncn(-c2ccc(N3CCN(c4ccc(OCC5COC(Cn6cncn6)(c6ccc(Cl)cc6Cl)O5)cc4)CC3)cc2)c1=O (stereo not given) [Itraconazole] (tested concentration range 0.5-5000 nM) | 0.2 | 4.2 | 1 | 0 | 1.2 | 2.7 | 1.2 | 5.3 | 0 | 1.6 | 2.7
N#Cc1ccnc(N2C(=O)CC[C@H]2C(=O)N(c2cncc(F)c2)[C@H](C(=O)NC2CC(F)(F)C2)c2ccccc2Cl)c1 [Ivosidenib] (tested concentration range 1-10000 nM) | 2 | 0.2 | 0 | 0.7 | 1.4 | 0 | 0 | 0 | 0.3 | 0 | 0
C/C(=C\c1csc(C)n1)[C@@H]1C[C@@H]2O[C@]2(C)CCC[C@H](C)[C@H](O)[C@@H](C)C(=O)C(C)(C)[C@@H](O)CC(=O)N1 [Ixabepilone] (tested concentration range 0.1-1000 nM) | 2.9 | 4.5 | 3.2 | 2.9 | 4.3 | 4.3 | 0.4 | 4.4 | 2.5 | 0 | 0.1
CC(C)C[C@H](NC(=O)CNC(=O)c1cc(Cl)ccc1Cl)B(O)O [Ixazomib] (tested concentration range 0.1-1000 nM) | 5.8 | 16.5 | 4.9 | 4.6 | 6.3 | 10.7 | 7.4 | 12.9 | 7.3 | 6 | 7.2
Nc1cc(COc2c(Cl)cc(C[C@H](N)C(=O)O)cc2Cl)c2oc(-c3ccccc3)nc2c1 [JPH203] (tested concentration range 0.5-5000 nM) | 0 | 0 | 0 | 0.1 | 2 | 0 | 0 | 0 | 1 | 0.1 | 0
CC(C)NC(=O)COc1cccc(-c2nc(Nc3ccc4[nH]ncc4c3)c3ccccc3n2)c1 [KD025] (tested concentration range 0.5-5000 nM) | 0.1 | 2.1 | 0 | 0 | 0.1 | 1 | 0.5 | 4.5 | 1.1 | 0 | 2.2
CC(C)[C@@H](CS(=O)(=O)C(C)C)N1C(=O)[C@@](C)(CC(=O)O)C[C@H](c2cccc(Cl)c2)[C@H]1c1ccc(Cl)cc1 [KRT-232] (tested concentration range 1-10000 nM) | 8.6 | 0 | 14.2 | 13.7 | 14.7 | 10 | 12.7 | 21.4 | 10.9 | 11.9 | 6.3
CS(=O)(=O)CCNCc1ccc(-c2ccc3ncnc(Nc4ccc(OCc5cccc(F)c5)c(Cl)c4)c3c2)o1 [Lapatinib] (tested concentration range 0.1-1000 nM) | 0 | 0 | 0 | 0 | 0 | 0 | 0 | 0.3 | 0 | 0 | 0.1
O=C(Nc1cnn2ccc(N3CCC[C@@H]3c3cc(F)ccc3F)nc12)N1CC[C@H](O)C1 [Larotrectinib] (tested concentration range 0.1-1000 nM) | 0 | 0 | 0 | 0 | 0 | 0 | 0 | 0 | 0 | 0 | 0
Oc1ccc2c(c1)CC[C@H](c1ccccc1)[C@@H]2c1ccc(OCCN2CCCC2)cc1 [Lasofoxifene] (tested concentration range 0.1-1000 nM) | 0 | 0 | 0 | 0 | 0 | 0 | 0 | 0 | 1.3 | 0 | 0
Nc1cccc2c1CN(C1CCC(=O)NC1=O)C2=O (stereo not given) [Lenalidomide] (tested concentration range 10-100000 nM) | 3 | 0 | 0 | 1.4 | 2.2 | 0 | 0 | 0 | 1.1 | 0 | 0
COc1cc2nccc(Oc3ccc(NC(=O)NC4CC4)c(Cl)c3)c2cc1C(N)=O [Lenvatinib] (tested concentration range 0.2-2500 nM) | 3 | 0.1 | 0.9 | 2.1 | 4.3 | 0 | 5.8 | 1.8 | 0.3 | 3.8 | 4.1
N#Cc1ccc(C(c2ccc(C#N)cc2)n2cncn2)cc1 [Letrozole] (tested concentration range 1-10000 nM) | 0 | 0 | 0 | 0 | 0 | 0 | 0 | 0 | 0 | 0 | 0
O=C1CCc2c(Oc3ccc4c(c3)[C@@H]3[C@H](O4)[C@H]3c3nc4cc(C(F)(F)F)ccc4[nH]3)ccnc2N1 [Lifirafenib] (tested concentration range 1-10000 nM) | 2.4 | 3.7 | 1.3 | 3.4 | 4.2 | 6.3 | 0.7 | 5.9 | 2.2 | 0.5 | 0
C[C@]1(O)C[C@@H](c2nc(-c3ccc4ccc(-c5ccccc5)nc4c3)c3c(N)nccn32)C1 [Linsitinib] (tested concentration range 1-10000 nM) | 0 | 0.5 | 0 | 1.5 | 2.6 | 1.3 | 0.7 | 0.6 | 3.2 | 0.2 | 0
Nc1nc(OCc2cc(Br)cs2)c2[nH]cnc2n1 [Lomeguatrib] (tested concentration range 1-10000 nM) | 0.1 | 0 | 0 | 0 | 1.4 | 0 | 0 | 0 | 0.2 | 0 | 0.1
NC(=O)N1CCC(CC(=O)N2CCC([C@H]3c4ncc(Br)cc4CCc4cc(Cl)cc(Br)c43)CC2)CC1 [Lonafarnib] (tested concentration range 5-50000 nM) | 9 | 16.6 | 3.1 | 8.2 | 9.7 | 18.6 | 7.7 | 16.1 | 7.6 | 8.5 | 9.2
C[C@H]1Oc2cc(cnc2N)-c2c(nn(C)c2C#N)CN(C)C(=O)c2ccc(F)cc21 [Lorlatinib] (tested concentration range 0.1-1000 nM) | 2.5 | 0.4 | 0 | 1.9 | 2.2 | 0.3 | 2.9 | 0 | 3.3 | 1.4 | 0
Cc1c(F)cc(C(=O)NC2CC2)cc1-c1ccc(C(=O)NCC(C)(C)C)cn1 [Losmapimod] (tested concentration range 1-10000 nM) | 0 | 0 | 0 | 0 | 0 | 0 | 0 | 3.7 | 0 | 0 | 0
CC[C@H](C)C(=O)O[C@H]1C[C@@H](C)C=C2C=C[C@H](C)[C@H](CC[C@@H]3C[C@@H](O)CC(=O)O3)[C@H]21 [Lovastatin] (tested concentration range 1-10000 nM) | 3.4 | 1.1 | 3.3 | 2.8 | 5.5 | 1 | 3 | 0 | 3.7 | 2.6 | 0.3
CNC(=O)c1cccc2cc(Oc3ccnc4cc(OCC5(N)CC5)c(OC)cc34)ccc12 [Lucitanib] (tested concentration range 1-10000 nM) | 7.4 | 2.8 | 5.7 | 6 | 5.9 | 1.8 | 13.5 | 3.4 | 3.9 | 6.6 | 6.3
